Data: patent publication US8246966B2, “Trypanosome microsome system and uses thereof” (priority 2006, dated 2012)

Assays:
[1] = test system: T. brucei microsomes (TbRM); test: Post-translational import of VSG-11786 into TbRM with inhibitors (Example 4); assay type: biochemical, Trypanosoma brucei
Method: FIGS. 7A to 7C. […] VSG-11786 mRNA was translated in rabbit reticulocyte lysate in the absence or presence of T. brucei cytosol for 1 hour at 37° C., and then cycloheximide was added to stop protein synthesis. TbRM (1 equivalent) and MAL3-101 (10 μM), MAL3-51 (10 μM), or an equal volume of DMSO was added to the samples on ice, and the mixture was incubated at 37° C. for 1.5 hours for translocation of VSG-11786 into the microsomes. Reaction mixtures were treated with proteinase K (PK) for one hour on ice. Proteolysis was terminated with PMSF. Proteins were precipitated with ammonium sulfate, pelleted by centrifugation, resuspended in SDS-PAGE sample buffer, and resolved by Tris-Tricine SDS-PAGE. Gel images were obtained with a phosphorimager and analyzed with Quantity-One software. Reaction mixtures for odd numbered lanes contained TbRM, but not proteinase K; even numbered lanes contained TbRM and proteinase K. Brackets denote lanes that were compared to obtain percentage of VSG-11786 import values. FIG. 7B is a graphical representation of data from FIG. 7A. […] In FIG. 7C, the effect of MAL3-101 on T. brucei growth.
FIGS. 8A to 8D. Effects of NFI028 and CAM741 on import of VSG-11786 into T. brucei microsomes. […] VSG-11786 mRNA was translated in rabbit reticulocyte lysate in the presence of T. brucei cytosol for one hour at 37° C., and then protein synthesis was stopped by the addition of cycloheximide. […] Reaction mixtures were treated with proteinase K (PK) on ice for one hour. Proteolysis was terminated with PMSF. Proteins were precipitated with ammonium sulfate, pelleted, resuspended in SDS-PAGE sample buffer, and resolved by Tris-Tricine SDS-PAGE. Images of radiolabeled proteins were obtained with a phosphorimager and quantitated with Quantity-One software. Samples depicted in odd numbered lanes contained TbRM, but were not treated proteinase K. Reaction mixtures shown in even numbered lanes contained TbRM and were treated with proteinase K. Brackets denote lanes that were compared to each other in order to obtain percentage of VSG-11786 import values. FIG. 8B is a graphical representation of data from FIG. 8A.
FIGS. 9A to 9D. Effects of azide, AEE788, and valinomycin on VSG-11786 import into T. brucei microsomes. […] VSG-11786 mRNA was translated in rabbit reticulocyte lysate in the presence of T. brucei cytosol for one hour at 37° C. Cycloheximide was added to stop proteins synthesis. TbRM (1 equivalent) and sodium azide (8 μM), AEE788 (8 μM), an equal volume of microsome buffer (RMB) or DMSO was added to the samples on ice, and the mixtures were incubated at 37 C for 1.5 hours. Reaction mixtures were treated with proteinase K (PK) on ice for one hour. Proteolysis was terminated with PMSF. Proteins were precipitated with ammonium sulfate, pelleted, resuspended in SDS-PAGE sample buffer, and resolved by Tris-Tricine SDS-PAGE. Images of radiolabeled proteins were obtained with a phosphorimager and quantitated with Quantity-One software. Brackets show lanes that were compared to each other in order to obtain percentage of VSG-11786 imported into TbRM. Lanes 1, 3, 5, & 7 were treated with TbRM, but not proteinase K. Lanes 2, 4, 6, & 8 were treated with TbRM and proteinase K. FIG. 9B is a graphical representation of data from FIG. 9A. […] Reaction mixtures depicted in odd lanes contained TbRM, but were not treated with proteinase K; even lanes contained TbRM and were treated with proteinase K. FIG. 9D is a graphical representation of data from panel FIG. 9C.

bloodstream T. brucei = conditions: del Rayo Camacho et al., 2002; read-out: IC50 of drug used to treat human African trypanosomiasis; cited from earlier work
[2] = test system: Bloodstream T. brucei CA427; test: Bloodstream T. brucei cell culture drug susceptibility (Example 4); assay type: cell-based, Trypanosoma brucei; conditions: cultured bloodstream T. brucei; read-out: IG50, T. brucei growth
Method: Cell Culture. Bloodstream T. brucei cell culture and drug susceptibility studies were performed as previously described. Bloodstream T. brucei CA427 were cultured in HMI-9 media (Hirumi and Hirumi, 1994, Parasitol Today; 10(2):80-4) to a density of 10^6 cells/ml. Cells were seeded (500 μl of 4×10^4 cells/ml) to a 24-well plate and exposed to MAL3-101, CAM741, and NFI028 at listed concentrations (see figure legends) or an equal volume of DMSO. Cells were incubated at 37° C. and counted after 24 and 48 hours, using a hemocytometer.

Question: Which “inhibition of post-translational import of VSG-11786 into TbRM” value ([1]; AEE788 8 μM) does the source give for `CCN1CCN(Cc2ccc(-c3cc4c(N[C@H](C)c5ccccc5)ncnc4[nH]3)cc2)CC1` [AEE788] here?
Answer: failed to inhibit

Question: For `N=C(N)c1ccc(OCCCCCOc2ccc(C(=N)N)cc2)cc1` [pentamidine], which IC50 (bloodstream T. brucei) is on record?
Answer: 0.3 nM

Question: For `Cc1ccc(C(=O)Nc2ccc(S(=O)(=O)O)c3cc(S(=O)(=O)O)cc(S(=O)(=O)O)c23)cc1NC(=O)c1cccc(NC(=O)Nc2cccc(C(=O)Nc3cc(C(=O)Nc4ccc(S(=O)(=O)O)c5cc(S(=O)(=O)O)cc(S(=O)(=O)O)c45)ccc3C)c2)c1` [suramin], which IC50 (bloodstream T. brucei) is on record?
Answer: 1400 to 2300 nM

Question: For `CC(C)[C@@H]1NC(=O)[C@H](C)OC(=O)[C@@H](C(C)C)NC(=O)[C@@H](C(C)C)OC(=O)[C@H](C(C)C)NC(=O)[C@H](C)OC(=O)[C@@H](C(C)C)NC(=O)[C@@H](C(C)C)OC(=O)[C@H](C(C)C)NC(=O)[C@H](C)OC(=O)[C@@H](C(C)C)NC(=O)[C@@H](C(C)C)OC1=O` [valinomycin], which “efficiency of VSG-11786 import into TbRM” value ([1]; valinomycin 0.5 μM) is on record?
Answer: not affected

Question: Which “VSG-11786 import into TbRM” value ([1]; CAM741 1 μM, DMSO 74%) does the source give for CAM741 here?
Answer: 73%

Question: What about the IC50 [2] of the same molecule?
Answer: 2000 nM
